Structures can show the parent of a compound that is named as a salt.
What follows are compounds tested against human KV7.2/KV7.3 (Homo sapiens (Human), UniProt O43525+O43526) (assay: Potassium flux assay (IPG-2 AM dye)). Conditions: TREX HEK 293 or HEK 293 cells expressing human KV7.2/KV7.3; arithmetic mean values.
Type: cell-based
In short: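 HEK 293 or TREX HEK 293 cells stably expressing human KV7.2/KV7.3 (tetracycline-induced where needed), loaded with IPG-2 AM, then compound for 20 min at room temperature. Flux triggered by K challenge buffer (10 mM KCl, pH 7.4), read at 530/558 nm; EC50 from 16-point 2-fold series from 30 μM, normalised to DMSO and reference modulator.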
For `Clc1ccc(Nc2nccc3cc(OCCCc4cn[nH]c4)ccc23)cn1` [Example 260, 6-(3-(1H-pyrazol-4-yl)propoxy)-N-(6-chloropyridin-3-yl)isoquinolin-1-amine], the EC50 was < 1 µM.
For `Cc1ncc(Nc2nccc3c(F)c(OCC4CC4)ccc23)cn1` [Example 233, 6-(cyclopropylmethoxy)-5-fluoro-N-(2-methylpyrimidin-5-yl)isoquinolin-1-amine], the EC50 was 10 to 30 µM.
`N#CC1(Oc2ccc3c(Nc4cnc(Cl)nc4)nccc3c2)CC1` [Example 60, 1-((1-((2-chloropyrimidin-5-yl)amino)isoquinolin-6-yl)oxy)cyclopropane-1-carbonitrile] gave an EC50 of 1 to 10 µM.
For `CS(=O)(=O)C1(COc2ccc3c(Nc4ccc(Cl)nc4)nccc3c2)CCC1` [Example 287, N-(6-chloropyridin-3-yl)-6-((1-(methylsulfonyl)cyclobutyl)methoxy)isoquinolin-1-amine], the EC50 was 1 to 10 µM.
With `Cc1ccc(Nc2nccc3cc(OCC4(F)CC4)ccc23)cn1` [Example 190, 6-((1-fluorocyclopropyl)methoxy)-N-(6-methylpyridin-3-yl)isoquinolin-1-amine] the EC50 was 1 to 10 µM.
With `Clc1ccc(Nc2nccc3cc(OCc4cncnc4)ccc23)cn1` [Example 182, N-(6-chloropyridin-3-yl)-6-(pyrimidin-5-ylmethoxy)isoquinolin-1-amine] the EC50 was < 1 µM.
`Cc1nn(C)cc1[C@H](C)Oc1ccc2c(Nc3ccc(Cl)nc3)nccc2c1` [Example 175, (S)—N-(6-chloropyridin-3-yl)-6-(1-(1,3-dimethyl-1H-pyrazol-4-yl)ethoxy)isoquinolin-1-amine] showed an EC50 of 1 to 10 µM.
For `N#CC1(COc2ccc3c(Nc4ccc(Cl)nc4)nccc3c2)CCOC1` (racemic) [Example 124, 3-(((1-((6-chloropyridin-3-yl)amino)isoquinolin-6-yl)oxy)methyl)tetrahydrofuran-3-carbonitrile], the EC50 was < 1 µM.
For `FC(F)C1(COc2ccc3c(Nc4ccc(Cl)nc4)nccc3c2)COC1` [Example 327, N-(6-chloropyridin-3-yl)-6-((3-(difluoromethyl)oxetan-3-yl)methoxy)isoquinolin-1-amine], the EC50 was < 1 µM.
`Clc1ccc(Nc2nccc3cc(OCc4ccccc4)ccc23)cn1` [Example 76, 6-(benzyloxy)-N-(6-chloropyridin-3-yl)isoquinolin-1-amine] was tested, and the EC50 was ≥ 30 µM.
`Clc1ccc(Nc2nccc3cc(OCc4nccs4)ccc23)cn1` [Example 212, N-(6-chloropyridin-3-yl)-6-(thiazol-2-ylmethoxy)isoquinolin-1-amine] gave an EC50 of 1 to 10 µM.
Compound `Cc1ncc(Nc2nccc3cc(OCc4cnn(C)c4)ccc23)cc1O` [Example 324, 2-methyl-5-((6-((1-methyl-1H-pyrazol-4-yl)methoxy)isoquinolin-1-yl)amino)pyridin-3-ol] has an EC50 of 1 to 10 µM.
Work on “N^8-(6-chloropyridin-3-yl)-N^3-((1-methyl-1H-pyrazol-4-yl)methyl)-1,7-naphthyridine-3,8-diamine [Example 251]” yielded an EC50 of 1 to 10 µM.
For `O=C(C1CC1)N1CCC(Oc2ccc3c(Nc4ccc(Cl)nc4)nccc3c2)CC1` [Example 121, (4-((1-((6-chloropyridin-3-yl)amino)isoquinolin-6-yl)oxy)piperidin-1-yl)(cyclopropyl)methanone], the EC50 was 1 to 10 µM.
Compound `Clc1ccc(Nc2nccc3cc(OCCCn4ccnc4)ccc23)cn1` [Example 185, 6-(3-(1H-imidazol-1-yl)propoxy)-N-(6-chloropyridin-3-yl)isoquinolin-1-amine] has an EC50 of 1 to 10 µM.
Compound `Clc1ccc(Nc2nccc3cc(OC4CCN(Cc5ncccn5)CC4)ccc23)cn1` [Example 314, N-(6-chloropyridin-3-yl)-6-((1-(pyrimidin-2-ylmethyl)piperidin-4-yl)oxy)isoquinolin-1-amine] has an EC50 of 1 to 10 µM.
In the case of `CC(=O)N1CC[C@@H](Oc2ccc3c(Nc4ccc(Cl)nc4)nccc3c2)C1` [Example 112, (R)-1-(3-((1-((6-chloropyridin-3-yl)amino)isoquinolin-6-yl)oxy)pyrrolidin-1-yl)ethan-1-one], the EC50 is reported as 1 to 10 µM.
For `Cc1ncc(Nc2nccc3cc(OCC4(F)CNC4)ccc23)cn1` [Example 58, 6-((3-fluoroazetidin-3-yl)methoxy)-N-(2-methylpyrimidin-5-yl)isoquinolin-1-amine], the EC50 was ≥ 30 µM.
For `CC(Cc1cccnc1)Oc1ccc2c(Nc3ccc(Cl)nc3)nccc2c1` (stereo not drawn) [Example 106, N-(6-chloropyridin-3-yl)-6-((1-(pyridin-3-yl)propan-2-yl)oxy)isoquinolin-1-amine], the EC50 was 1 to 10 µM.
`C[C@H](Oc1ccc2c(Nc3ccc(Cl)nc3)nccc2c1)C1(F)CC1` [Example 140, (S)-N-(6-chloropyridin-3-yl)-6-(1-(1-fluorocyclopropyl)ethoxy)isoquinolin-1-amine] was tested, and the EC50 was < 1 µM.
Compound `CN1C(=O)CCC1COc1ccc2c(Nc3ccc(Cl)nc3)nccc2c1` (stereo not drawn) [Example 53, 5-(((1-((6-chloropyridin-3-yl)amino)isoquinolin-6-yl)oxy)methyl)-1-methylpyrrolidin-2-one] has an EC50 of 1 to 10 µM.
`C[C@]1(O)CC[C@@H](Oc2ccc3c(Nc4ccc(Cl)nc4)nccc3c2)CC1` [Example 265, cis-4-((1-((6-chloropyridin-3-yl)amino)isoquinolin-6-yl)oxy)-1-methylcyclohexan-1-ol] was tested, and the EC50 was < 1 µM.
For `FC1(COc2ccc3c(Nc4ccc(Cl)nc4)nccc3c2)COC1` [Example 52, N-(6-chloropyridin-3-yl)-6-((3-fluorooxetan-3-yl)methoxy)isoquinolin-1-amine], the EC50 was < 1 µM.
Compound `Cc1ncc(Nc2nccc3cc(OCC4COC4)ccc23)cn1` [Example 221, N-(2-methylpyrimidin-5-yl)-6-(oxetan-3-ylmethoxy)isoquinolin-1-amine] has an EC50 of 1 to 10 µM.
In the case of `FC(F)COc1ccc2c(Nc3cnc(Cl)nc3)nccc2c1` [Example 66, N-(2-chloropyrimidin-5-yl)-6-(2,2-difluoroethoxy)isoquinolin-1-amine], the EC50 is reported as < 1 µM.
In the case of `Clc1ccc(Nc2nccc3cc(OCC4(C5CC5)CC4)ccc23)cn1` [Example 137, 6-([1,1′-bi(cyclopropan)]-1-ylmethoxy)-N-(6-chloropyridin-3-yl)isoquinolin-1-amine], the EC50 is reported as < 1 µM.
`FC(F)(F)C1(COc2ccc3c(Nc4ccc(Cl)nc4)nccc3c2)CC1` [Example 231, N-(6-chloropyridin-3-yl)-6-((1-(trifluoromethyl)cyclopropyl)methoxy)isoquinolin-1-amine formate] was tested, and the EC50 was < 1 µM.
With `C[C@]1(COc2ccc3c(Nc4ccc(Cl)nc4)nccc3c2)CCCO1` [Example 302, (R)—N-(6-chloropyridin-3-yl)-6-((2-methyltetrahydrofuran-2-yl)methoxy)isoquinolin-1-amine] the EC50 was 1 to 10 µM.
`Cc1ccc(Nc2nccc3cc(OCC4COC4)ccc23)cn1` [Example 214, N-(6-methylpyridin-3-yl)-6-(oxetan-3-ylmethoxy)isoquinolin-1-amine] was tested, and the EC50 was 1 to 10 µM.
`N#CCn1cc(COc2ccc3c(Nc4ccc(Cl)nc4)nccc3c2)cn1` [Example 400, 2-(4-(((1-((6-chloropyridin-3-yl)amino)isoquinolin-6-yl)oxy)methyl)-1H-pyrazol-1-yl)acetonitrile] was tested, and the EC50 was < 1 µM.
In the case of `[2H]C([2H])(Oc1ccc2c(Nc3ccc(Cl)nc3)nccc2c1)c1cnn(C)c1` [Example 386, N-(6-chloropyridin-3-yl)-6-((1-methyl-1H-pyrazol-4-yl)methoxy-d2)isoquinolin-1-amine], the EC50 is reported as < 1 µM.
`Cn1cc(CNc2ccc3c(Nc4ccc(Cl)nc4)nccc3c2)cn1` [Example 244, N′-(6-chloropyridin-3-yl)-N^6-((1-methyl-1H-pyrazol-4-yl)methyl)isoquinoline-1,6-diamine] was tested, and the EC50 was 1 to 10 µM.
Compound `Cn1nccc1-c1ccc2c(Nc3ccc(Cl)nc3)nccc2c1` [Example 422, N-(6-chloropyridin-3-yl)-6-(1-methyl-1H-pyrazol-5-yl)isoquinolin-1-amine] has an EC50 of 1 to 10 µM.
For `FC1(COc2ccc3c(Nc4cnc(Cl)nc4)nccc3c2)CC1` [Example 68, N-(2-chloropyrimidin-5-yl)-6-((1-fluorocyclopropyl)methoxy)isoquinolin-1-amine], the EC50 was < 1 µM.
For `Cn1cncc1COc1ccc2c(Nc3ccc(Cl)nc3)nccc2c1` [Example 65, N-(6-chloropyridin-3-yl)-6-((1-methyl-1H-imidazol-5-yl)methoxy)isoquinolin-1-amine], the EC50 was < 1 µM.
In the case of `CC(F)(F)C1(COc2ccc3c(Nc4cnc(Cl)nc4)nccc3c2)COC1` [Example 355, N-(2-chloropyrimidin-5-yl)-6-((3-(1,1-difluoroethyl)oxetan-3-yl)methoxy)isoquinolin-1-amine], the EC50 is reported as < 1 µM.
`N#C[C@H]1C[C@](F)(COc2ccc3c(Nc4cnc(Cl)nc4)nccc3c2)C1` [Example 64, (1s,3s)-3-(((1-((2-chloropyrimidin-5-yl)amino)isoquinolin-6-yl)oxy)methyl)-3-fluorocyclobutane-1-carbonitrile] was tested, and the EC50 was < 1 µM.
Compound `Clc1ccc(Nc2nccc3scnc23)cn1` [Example 13, N-(6-chloropyridin-3-yl)thiazolo[4,5-c]pyridin-4-amine] has an EC50 of 1 to 10 µM.
Work on `FC(F)C(F)(F)COc1ccc2c(Nc3ccc(Cl)nc3)nccc2c1` [Example 409, N-(6-chloropyridin-3-yl)-6-(2,2,3,3-tetrafluoropropoxy)isoquinolin-1-amine] yielded an EC50 of 1 to 10 µM.
`FC(F)(F)CN1CC(Oc2ccc3c(Nc4ccc(Cl)nc4)nccc3c2)C1` [Example 325, N-(6-chloropyridin-3-yl)-6-((1-(2,2,2-trifluoroethyl)azetidin-3-yl)oxy)isoquinolin-1-amine] showed an EC50 of 1 to 10 µM.
With `Fc1ccc2c(Nc3cnc(Cl)nc3)nccc2c1` [Example 23, N-(2-chloropyrimidin-5-yl)-6-fluoroisoquinolin-1-amine] the EC50 was 1 to 10 µM.
For `Clc1ccc(Nc2nccc3cc(OC[C@H]4CCCN4Cc4ccccc4)ccc23)cn1` [Example 280, (R)-6-((1-benzylpyrrolidin-2-yl)methoxy)-N-(6-chloropyridin-3-yl)isoquinolin-1-amine], the EC50 was 1 to 10 µM.

Source: patent publication US20240101531A1, “PYRIDINAMINE DERIVATIVES AND THEIR USE AS POTASSIUM CHANNEL MODULATORS” (Xenon Pharmaceuticals Inc., priority 2022, published 2024)
